Source: ChEMBL document CHEMBL6114979, “Discovery of 3-indolylbenzoquinone derivatives with therapeutic potential for breast cancer” (Bioorg Med Chem, 2025)
Active and inactive are the calls of the source. The rule behind the calls is not given here.

Assays:
[1] = Toxicity in female Balb/c mouse implanted with mouse 4T1 cells assessed as abnormalities in heart at 35 mg/kg, ip administered once every 2 days for 14 days; format: organism-based; settings: in vivo, 336 h, time 14 day
[2] = Toxicity in female Balb/c mouse implanted with mouse 4T1 cells assessed as abnormalities in kidney at 35 mg/kg, ip administered once every 2 days for 14 days; format: organism-based; settings: in vivo, 336 h, time 14 day
MDA-MB-231 [3] = test: Induction of apoptosis in human MDA-MB-231 cells assessed as necrotic cells at 1 uM incubated for 24 hrs by Annexin-V/PI staining based flow cytometric analysis (reference value: 0.71%); format: functional
MDA-MB-231 [4] = test: Induction of cell cycle arrest in human MDA-MB-231 cells assessed as accumulation of cells at G0/G1 phase at 1 uM incubated for 24 hrs by PI staining based flow cytometric analysis (reference value: 57.31%); format: functional
MDA-MB-231 [5] = test: Induction of apoptosis in human MDA-MB-231 cells assessed as increase in red fluorescence at 1 uM incubated for 24 hrs in presence of doxorubicin by fluorescence microscopic analysis; format: functional, cell-based
4T1 [6] = test: Antitumor activity against mouse 4T1 cells implanted in Balb/c mouse assessed as lighter tumor at 200 mg/kg, TOP administration once every 2 days for 14 days; format: functional, organism-based; settings: time 14.0 day
4T1 [7] = test: Antitumor activity against mouse 4T1 cells implanted in Balb/c mouse assessed as reduction in tumor volume at 80 mg/kg, IT administered once every 4 days in presence of olive oil; format: functional, organism-based
4T1 [8] = test: Antitumor activity against mouse 4T1 cells implanted in Balb/c mouse assessed as appearance of vacuolation at 200 mg/kg, TOP administration once every 2 days for 14 days; format: functional, organism-based; settings: time 14.0 day
NIH3T3 = test: Cytotoxicity against mouse 3T3 cells; format: toxicity, cell-based
[9] = Toxicity in female Balb/c mouse implanted with mouse 4T1 cells assessed as mortality at 80 mg/kg, IT administered once every 4 days in presence of olive oil; format: organism-based; settings: in vivo, other, 96 h
4T1 [10] = test: Antitumor activity against mouse 4T1 cells implanted in Balb/c mouse assessed as reduction in tumor size at 80 mg/kg, IT administered once every 4 days in presence of olive oil; format: functional, organism-based
[11] = Toxicity in Kunming mouse assessed as change in kidney lesions at 240 to 469 mg/kg, ip administered for 14 days by H and E staining based analysis; format: organism-based; settings: in vivo, 336 h, dose 240-469 mg/kg, time 14 day
MDA-MB-231 [12] = test: Induction of apoptosis in human MDA-MB-231 cells assessed as early apoptotic cells at 1 uM incubated for 24 hrs by Annexin-V/PI staining based flow cytometric analysis (reference value: 2.69%); format: functional
[13] = Toxicity in Kunming mouse assessed as appearance of mononuclear macrophages in alveolar lumen at 240 to 469 mg/kg, ip administered for 14 days by H and E staining based analysis; format: organism-based; settings: in vivo, 336 h, dose 240-469 mg/kg, time 14 day
4T1 [14] = test: Antitumor activity against mouse 4T1 cells implanted in Balb/c mouse assessed as damage in endoplasmic reticulum at 200 mg/kg, TOP administration once every 2 days for 14 days; format: functional, organism-based; settings: time 14.0 day
4T1 [15] = test: Antitumor activity against mouse 4T1 cells implanted in Balb/c mouse assessed as appearance of central tumor necrosis at 35 mg/kg, ip administered once every 2 days for 14 days relative to control; format: functional; settings: time 14 day
HUVEC = test: Cytotoxicity against human HUVEC cells; format: toxicity, cell-based
4T1 [16] = test: Antitumor activity against mouse 4T1 cells implanted in Balb/c mouse assessed as reduction in tumor volume at 25 to 35 mg/kg, ip administered once every 2 days for 14 days; format: functional, organism-based; settings: dose 25-35 mg/kg, time 14.0 day
[17] = Toxicity in female Balb/c mouse implanted with mouse 4T1 cells assessed as change in body weight at 200 mg/kg, TOP administration once every 2 days for 14 days; format: organism-based; settings: in vivo, topical_or_ocular, 336 h, time 14 day
[18] = Toxicity in female Balb/c mouse implanted with mouse 4T1 cells assessed as mortality at 25 to 35 mg/kg, ip administered once every 2 days; format: organism-based; settings: in vivo, 48 h, dose 25-35 mg/kg, time 2 day
[19] = Toxicity in Kunming mouse assessed as change in lung morphology at 240 to 469 mg/kg, ip administered for 14 days by H and E staining based analysis; format: organism-based; settings: in vivo, 336 h, dose 240-469 mg/kg, time 14 day
A549 = test: Antiproliferative activity against human A549 cells assessed as inhibition of cell proliferation incubated for 48 hrs by CCK-8 assay; format: functional, cell-based; settings: A549, 48 h
4T1 [20] = test: Antitumor activity against mouse 4T1 cells implanted in Balb/c mouse assessed as appearance of irregular necrotic foci at 25 mg/kg, ip administered once every 2 days for 14 days; format: functional, organism-based; settings: time 14.0 day
[21] = target: Phosphatidylinositol 4,5-bisphosphate 3-kinase catalytic subunit alpha (Homo sapiens) (UniProt P42336); test: Binding affinity to P13Kalpha in human MDA-MB-231 cells assessed as thermal stabilization at 6.4 uM incubated for 2 hrs by CETSA based Western blotting analysis
Phosphatidylinositol 4,5-bisphosphate 3-kinase catalytic subunit alpha (Homo sapiens), sequence (P42336 whole entry, looked up): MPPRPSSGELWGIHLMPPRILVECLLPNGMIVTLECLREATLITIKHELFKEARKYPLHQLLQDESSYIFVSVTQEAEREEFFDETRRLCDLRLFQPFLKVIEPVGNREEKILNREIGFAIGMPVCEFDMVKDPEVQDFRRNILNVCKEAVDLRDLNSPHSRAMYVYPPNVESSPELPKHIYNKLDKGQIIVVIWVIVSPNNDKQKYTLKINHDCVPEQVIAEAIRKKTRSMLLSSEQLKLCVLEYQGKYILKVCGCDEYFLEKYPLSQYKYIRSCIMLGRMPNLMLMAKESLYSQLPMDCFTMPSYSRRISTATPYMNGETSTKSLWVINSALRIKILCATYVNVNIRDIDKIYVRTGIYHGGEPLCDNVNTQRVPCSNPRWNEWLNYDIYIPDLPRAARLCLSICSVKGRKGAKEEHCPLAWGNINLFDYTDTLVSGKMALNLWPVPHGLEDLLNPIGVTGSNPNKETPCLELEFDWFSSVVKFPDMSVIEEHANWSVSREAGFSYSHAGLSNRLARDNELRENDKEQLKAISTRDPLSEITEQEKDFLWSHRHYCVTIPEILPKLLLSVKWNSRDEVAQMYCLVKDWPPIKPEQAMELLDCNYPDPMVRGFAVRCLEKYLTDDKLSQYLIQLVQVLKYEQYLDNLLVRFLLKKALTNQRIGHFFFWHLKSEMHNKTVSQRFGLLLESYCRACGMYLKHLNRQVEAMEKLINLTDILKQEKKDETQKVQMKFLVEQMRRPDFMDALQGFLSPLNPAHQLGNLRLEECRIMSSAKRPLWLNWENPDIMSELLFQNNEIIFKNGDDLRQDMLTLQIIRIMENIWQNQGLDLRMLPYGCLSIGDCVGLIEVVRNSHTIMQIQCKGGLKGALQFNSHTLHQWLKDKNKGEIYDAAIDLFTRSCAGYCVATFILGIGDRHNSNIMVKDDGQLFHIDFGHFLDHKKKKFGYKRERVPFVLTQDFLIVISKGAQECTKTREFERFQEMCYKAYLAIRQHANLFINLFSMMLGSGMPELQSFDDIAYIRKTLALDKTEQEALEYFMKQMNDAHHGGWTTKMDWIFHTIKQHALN

4T1 [22] = test: Antitumor activity against mouse 4T1 cells implanted in Balb/c mouse assessed as smaller tumor at 200 mg/kg, TOP administration once every 2 days for 14 days; format: functional, organism-based; settings: time 14.0 day
4T1 [23] = test: Antitumor activity against mouse 4T1 cells implanted in Balb/c mouse assessed as appearance of chromatin aggregation at 25 to 35 mg/kg, ip administered once every 2 days for 14 days by TEM analysis; format: functional, organism-based; settings: dose 25-35 mg/kg, time 14.0 day
MDA-MB-231 [24] = test: Induction of cell cycle arrest in human MDA-MB-231 cells assessed as accumulation of cells at G2/M phase at 1 uM incubated for 24 hrs by PI staining based flow cytometric analysis (reference value: 33.98%); format: functional
[25] = Toxicity in Kunming mouse assessed as infiltration of chronic inflammatory cells at 240 to 469 mg/kg, ip administered for 14 days by H and E staining based analysis; format: organism-based; settings: in vivo, 336 h, dose 240-469 mg/kg, time 14 day
4T1 [26] = test: Antitumor activity against mouse 4T1 cells implanted in Balb/c mouse assessed as appearance of mitochondrial swelling at 80 mg/kg, IT administered once every 4 days for 14 days in presence of olive oil by TEM analysis; format: functional, organism-based; settings: time 14.0 day
[27] = Toxicity in female Balb/c mouse implanted with mouse 4T1 cells assessed as abnormalities in lungs at 35 mg/kg, ip administered once every 2 days for 14 days; format: organism-based; settings: in vivo, 336 h, time 14 day
[28] = Nephrotoxicity in Kunming mouse assessed as change in CREA level administered intraperitoneally for 14 days (reference value: 16 +/- 2.45 U); format: toxicity; settings: in vivo, ip, 336 h, time 14 day
4T1 [29] = test: Antitumor activity against mouse 4T1 cells implanted in Balb/c mouse assessed as appearance of nuclear membrane disruption at 80 mg/kg, IT administered once every 4 days for 14 days in presence of olive oil by TEM analysis; format: functional, organism-based; settings: time 14.0 day
[30] = Toxicity in female Balb/c mouse implanted with mouse 4T1 cells assessed as change in body weight at 25 to 35 mg/kg, ip administered once every 2 days; format: organism-based; settings: in vivo, 48 h, dose 25-35 mg/kg, time 2 day
4T1 [31] = test: Antitumor activity against mouse 4T1 cells implanted in Balb/c mouse assessed as appearance of vacuolation at 80 mg/kg, IT administered once every 4 days for 14 days in presence of olive oil by TEM analysis; format: functional, organism-based; settings: time 14.0 day
4T1 [32] = test: Antitumor activity against mouse 4T1 cells implanted in Balb/c mouse assessed as tumor inhibition rate at 200 mg/kg, TOP administration once every 2 days for 14 days relative to control; format: functional; design: scale not given: the % may be the effect or the level left; settings: time 14 day

## Cc1[nH]c2ccccc2c1C1=C(F)C(=O)C(F)=C(N2CCOCC2)C1=O
[1]
  Activity: Non-toxic
[2]
  Activity: Non-toxic
MDA-MB-231 [3]
  Activity: 3.93%
MDA-MB-231 [4]
  Activity: 32.15%
MDA-MB-231 [5]
  Activity: Active; Compound Showed More Effect Than Mitoxantrone Treated Group
4T1 [6]
  Activity: Active
4T1 [7]
  Activity: Active
4T1 [8]
  Activity: Active
NIH3T3
  Activity: Toxic
[9]
  Activity: Non-toxic
4T1 [10]
  Activity: Active
[11]
  Activity: Non-toxic
MDA-MB-231 [12]
  Activity: 24.53%
[13]
  Activity: Toxic
4T1 [14]
  Activity: Active
4T1 [15]
  Activity: 100%
HUVEC
  Activity: Toxic
4T1 [16]
  Activity: Active
[17]
  Activity: Non-toxic
[18]
  Activity: Non-toxic
[19]
  Activity: Non-toxic
A549
  IC50: 5.21 µM
4T1 [20]
  Activity: Active
[21]
  Activity: Active
4T1 [22]
  Activity: Active
4T1 [23]
  Activity: Active
MDA-MB-231 [24]
  Activity: 63.64%
[25]
  Activity: Toxic
4T1 [26]
  Activity: Active
[27]
  Activity: Non-toxic
[28]
  Activity: 12.25 U
4T1 [29]
  Activity: Active
[30]
  Activity: Non-toxic
4T1 [31]
  Activity: Active
4T1 [32]
  Activity: 38.9%
